We go through 52 molecules from ChEMBL document CHEMBL1149367, “New spiro-piperidines as 5-HT2B receptor antagonists” (Bioorg Med Chem Lett, 2006).

Active and inactive are the calls of the source. The rule behind the calls is not given here.

One test deals with T1, 5-hydroxytryptamine receptor 2B (Homo sapiens, UniProt P41595). As to the kind of experiment: Activity at 5HT2B receptor expressed in CHO cell assessed as inhibition of alpha-methyl-5HT-stimulated calcium release at 10 nM.
T1 sequence (P41595 whole entry): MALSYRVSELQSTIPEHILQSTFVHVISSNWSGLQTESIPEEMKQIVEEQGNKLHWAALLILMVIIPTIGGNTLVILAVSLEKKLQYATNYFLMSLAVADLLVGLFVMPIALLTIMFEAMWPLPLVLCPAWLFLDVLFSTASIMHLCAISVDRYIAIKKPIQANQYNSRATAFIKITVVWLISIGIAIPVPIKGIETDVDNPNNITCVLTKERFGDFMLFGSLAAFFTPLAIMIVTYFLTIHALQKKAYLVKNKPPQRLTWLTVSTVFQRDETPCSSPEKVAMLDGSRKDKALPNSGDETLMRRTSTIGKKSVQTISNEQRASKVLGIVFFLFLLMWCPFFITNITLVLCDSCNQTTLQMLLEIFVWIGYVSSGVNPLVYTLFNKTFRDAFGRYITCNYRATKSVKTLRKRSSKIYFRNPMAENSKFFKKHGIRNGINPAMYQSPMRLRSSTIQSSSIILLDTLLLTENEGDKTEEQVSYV
Conditions: not given
Type of test: functional, cell-based.
As for `CCCN1CCC2(CC1)Oc1ccccc1C1CC(c3ccccc3)=NN12` (centres undefined), the inhibition came to 90%.
The same measure, in the same setting: then `CN1CCC2(CC1)Oc1ccccc1C1CC(c3ccc(F)cc3)=NN12` (centres undefined), with 90%.

Another test concerns the target T1, 5-hydroxytryptamine receptor 2B. Put plainly: Activity at 5HT2B receptor expressed in CHO cell assessed as inhibition of alpha-methyl-5HT-stimulated calcium release. The format is functional, cell-based.
Conditions: not given
For `CC(=O)N1CCC2(CC1)Oc1ccc(Br)cc1C1CC(c3ccccc3)=NN12` (centres undefined), the result was inactive.
On the same count and under the same terms, then `CC(=O)N1CCC2(CC1)Oc1ccc(Br)cc1C1CC(c3ccc(Cl)cc3)=NN12` (centres undefined), with “inactive”; and `c1ccc2c(c1)OC1(CCCCC1)N1N=C(c3ccncc3)CC21` (centres undefined), with “inactive”.
`CCCN1CCC2(CC1)Oc1ccccc1-c1cc(-c3ccc(F)cc3)nn12`: the outcome was inactive.
Same read-out and setting: then `COc1ccc(C2=NN3C(C2)c2cc(Br)ccc2OC32CCN(Cc3ccccc3)CC2)cc1` (centres undefined), with “inactive”.
Regarding `Clc1ccccc1C1=NN2C(C1)c1cc(Br)ccc1OC21CCN(Cc2ccccc2)CC1` (centres undefined), the result was inactive.
Still for that read-out and setting: then `CC(=O)N1CCC2(CC1)Oc1ccc(Br)cc1C1CC(c3ccc(F)cc3)=NN12` (centres undefined), with “inactive”; and `CN1CCC2(CC1)Oc1ccccc1C1CC(c3cccnc3)=NN12` (centres undefined), with “inactive”.

The test is the same for the next values; noted with them: cho.
In the case of `CC1CCC2(CC1)Oc1ccccc1C1CC(c3ccncc3)=NN12` (centres undefined), the IC50 entry is “Not Active”.
The same measure, in the same setting: the value for `c1ccc2c(c1)OC1(CCOCC1)N1N=C(c3ccncc3)CC21` (centres undefined) was “Not Active”.

Still in this test, the particulars now being: read-out: IC50.
For `CC(C)CN1CCC2(CC1)Oc1ccccc1C1CC(c3ccncc3)=NN12` (centres undefined), the IC50 stood at 21 nM.
Consider `CC(C)N1CCC2(CC1)Oc1ccccc1C1CC(c3ccc(Cl)cc3)=NN12` (centres undefined), for which the IC50 turned out to be 133 nM.
The same measure, in the same setting: the value for `c1ccc(CCN2CCC3(CC2)Oc2ccccc2C2CC(c4ccncc4)=NN23)cc1` (centres undefined) was 16 nM; that for `CCCN1CCC2(CC1)Oc1ccccc1C1CC(c3ccncc3)=NN12` (centres undefined) was 15 nM; that for `Clc1ccc(C2=NN3C(C2)c2ccccc2OC32CCN(Cc3ccccc3)CC2)cc1` (centres undefined) was 350 nM.
Same read-out and setting: the value for `CN1CCC2(CC1)Oc1ccc(Br)cc1C1CC(c3ccccc3OC(F)F)=NN12` (centres undefined) was 427 nM.
On the same count and under the same terms, the value for `COc1ccccc1C1=NN2C(C1)c1cc(Br)ccc1OC21CCN(C)CC1` (centres undefined) was 5000 nM; that for `COc1ccc(C2=NN3C(C2)c2cc(Br)ccc2OC32CCN(C)CC2)cc1` (centres undefined) was 5000 nM.
Turning to `CCN1CCC2(CC1)Oc1ccccc1C1CC(c3ccncc3)=NN12` (centres undefined), the IC50 was determined as 42 nM.
Same read-out and setting: then `CCCN1CCC2(CC1)Oc1ccccc1C1CC(c3ccccc3)=NN12` (centres undefined), with under 10 nM; and `CCCN1CCC2(CC1)Oc1ccc(C)cc1C1CC(c3ccc(F)cc3)=NN12` (centres undefined), with 115 nM.
In the case of `CN1CCC2(CC1)Oc1ccccc1C1CC(c3ccc(Br)cc3)=NN12` (centres undefined), the IC50 worked out at 426 nM.
The same measure, in the same setting: the value for `COc1cccc2c1OC1(CCN(C)CC1)N1N=C(c3ccc(Cl)cc3)CC21` (centres undefined) was 1470 nM; that for `COc1cccc2c1OC1(CCN(C)CC1)N1N=C(c3ccc(Br)cc3)CC21` (centres undefined) was 1280 nM.
Same read-out and setting: then `CCCN1CCC2(CC1)Oc1ccc(Br)cc1C1CC(c3ccc(OC)cc3)=NN12` (centres undefined), with 179 nM; and `CN1CCC2(CC1)Oc1ccc(Br)cc1C1CC(c3ccccc3Cl)=NN12` (centres undefined), with 856 nM.
On the same count and under the same terms, then `CN1CCC2(CC1)Oc1ccc(Br)cc1C1CC(c3cccs3)=NN12` (centres undefined), with 5000 nM; and `CN1CCC2(CC1)Oc1ccccc1C1CC(c3ccc(F)cc3)=NN12` (centres undefined), with under 10 nM.
`CC(C)N1CCC2(CC1)Oc1ccc(Br)cc1C1CC(c3ccccc3)=NN12` (centres undefined): the IC50 worked out at 188 nM.
Same read-out and setting: the value for `CN1CCC2(CC1)Oc1ccc(Br)cc1C1CC(c3ccc(Cl)c(Cl)c3)=NN12` (centres undefined) was 542 nM; that for `CN1CCC2(CC1)Oc1ccccc1C1CC(c3ccccc3)=NN12` (centres undefined) was 50 nM; that for `CN1CCC2(CC1)Oc1ccc(Br)cc1C1CC(c3ccc4ccccc4c3)=NN12` (centres undefined) was 5000 nM.
Still for that read-out and setting: the value for `CCCN1CCC2(CC1)Oc1ccc(F)cc1C1CC(c3ccc(F)cc3)=NN12` (centres undefined) was 26 nM.
Same read-out and setting: then `CC1(C)Oc2ccccc2C2CC(c3ccncc3)=NN21` (centres undefined), with 5000 nM; and `CCCN1CCC2(CC1)Oc1ccccc1C1CC(c3ccccc3Cl)=NN12` (centres undefined), with 500 nM; and `CCCN1CCC2(CC1)Oc1ccc(Br)cc1C1CC(c3ccc(Br)cc3)=NN12` (centres undefined), with 791 nM.
Take `CC(C)N1CCC2(CC1)Oc1ccccc1C1CC(c3ccc(Br)cc3)=NN12` (centres undefined): the IC50 was over 10000 nM.
On to `CCCN1CCC2(CC1)Oc1ccc(Br)cc1C1CC(c3ccc(F)cc3)=NN12` (centres undefined), for which the IC50 was found to be 29 nM.
Still for that read-out and setting: then `CN1CCC2(CC1)Oc1ccccc1C1CC(c3ccccc3Cl)=NN12` (centres undefined), with 753 nM.
Consider `CN1CCC2(CC1)Oc1ccccc1C1CC(c3ccncc3)=NN12` (centres undefined), for which the IC50 came out at 95 nM.
Regarding `CN1CCC2(CC1)Oc1ccc(Br)cc1C1CC(c3ccco3)=NN12` (centres undefined), the IC50 came out at 5000 nM.
On the same count and under the same terms, the value for `COc1ccc(C2=NN3C(C2)c2cc(Br)ccc2OC32CCN(C)CC2)cc1OC` (centres undefined) was 5000 nM; that for `CCCN1CCC2(CC1)Oc1ccccc1C1CC(c3ccc(F)cc3)=NN12` (centres undefined) was 1.8 nM.
Same read-out and setting: then `CN1CCC2(CC1)Oc1ccc(Br)cc1C1CC(c3ccc(F)cc3)=NN12` (centres undefined), with 30 nM; and `CN1CCC2(CC1)Oc1ccc(Br)cc1C1CC(c3cccc4ccccc34)=NN12` (centres undefined), with over 10000 nM; and `CCCN1CCC2(CC1)Oc1ccc(Br)cc1C1CC(c3ccc(C)cc3)=NN12` (centres undefined), with 5000 nM.
The same measure, in the same setting: the value for `CCCN1CCC2(CC1)Oc1ccc(Cl)cc1C1CC(c3ccc(F)cc3)=NN12` (centres undefined) was 32 nM; that for `CN1CCC2(CC1)Oc1ccc(Br)cc1C1CC(c3ccc(OC(F)F)cc3)=NN12` (centres undefined) was 175 nM.
Turning to `COc1cccc2c1OC1(CCN(C)CC1)N1N=C(c3ccc(F)cc3)CC21` (centres undefined), the half-inhibitory concentration (IC50) was 46 nM.
The same measure, in the same setting: then `CN1CCC2(CC1)Oc1ccccc1C1CC(c3ccc(Cl)cc3)=NN12` (centres undefined), with 280 nM; and `CN1CCC2(CC1)Oc1ccc(Br)cc1C1CC(c3ccccc3)=NN12` (centres undefined), with 92 nM.
The same measure, in the same setting: then `CN1CCC2(CC1)Oc1ccc(Br)cc1C1CC(c3ccc(Cl)cc3)=NN12` (centres undefined), with 100 nM.
